According to US20260022142A1, “MACROCYCLIC IMMUNOMODULATORS” (Bristol-Myers Squibb Company, priority 2022, published 2026):
Bridge positions count the residues as written; N and C are the ends. Square brackets hold non-standard residues; d marks the D form. Peptide text beside a SMILES is read from it. * marks the point of attachment. ξ: configuration not given here. Phe(4-COOH) = N[C@@H](Cc1ccc(C(=O)O)cc1)C(=O)O; Bip = N[C@@H](Cc1ccc(-c2ccccc2)cc1)C(=O)O; Phe(3-Me) = Cc1cccc(C[C@H](N)C(=O)O)c1; hArg = N=C(N)NCCCC[C@H](N)C(=O)O; 4Pal = N[C@@H](Cc1ccncc1)C(=O)O; Cha = N[C@@H](CC1CCCCC1)C(=O)O; Cit = NC(=O)NCCC[C@H](N)C(=O)O; Ile(3ξ) = CCC(C)[C@H](N)C(=O)O; Thr(3ξ) = CC(O)[C@H](N)C(=O)O; 12Ado = NCCCCCCCCCCCC(=O)O; hSer = N[C@@H](CCO)C(=O)O; Carboxymethyl = O=C(O)C*; Orn = NCCC[C@H](N)C(=O)O; Aun = NCCCCCCCCCCC(=O)O; Dab = NCC[C@H](N)C(=O)O; Dap = NC[C@H](N)C(=O)O; AEEA = NCCOCCOCC(=O)O

Target: T1, PD-1/PD-L1 interaction (PE-labeled human PD-L1-Ig binding to Jurkat cell line over-expressing human PD-1) (Homo sapiens, UniProt Q15116)
T1 construct: expressed in transfected cells; host or cells: Jurkat
T1 sequence (Q15116 25-288): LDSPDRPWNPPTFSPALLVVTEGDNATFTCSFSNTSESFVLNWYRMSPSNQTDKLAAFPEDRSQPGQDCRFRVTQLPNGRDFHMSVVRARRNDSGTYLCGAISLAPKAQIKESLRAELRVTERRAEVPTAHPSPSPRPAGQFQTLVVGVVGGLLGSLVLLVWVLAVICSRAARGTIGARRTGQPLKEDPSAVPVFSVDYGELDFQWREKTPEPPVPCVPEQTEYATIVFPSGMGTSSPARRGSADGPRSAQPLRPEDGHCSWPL
Experiment: Jurkat-PD-1 Cell Binding High-Content Screening Assay (CBA)
Assay type: cell-based
Settings: Jurkat cell line over-expressing human PD-1; PE-labeled PD-L1-Ig 20 nM final; read-out: Jurkat hPD1-PDL1 IC50
Method in brief: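 Jurkat cells stably over-expressing human PD-1 were seeded in DMEM with 10% fetal calf serum and pre-incubated with compound for 2 h at 37° C. PE-labeled human PD-L1-Ig was then added at 20 nM final for 1 hour, after which cells were fixed with paraformaldehyde, Hoechst-stained and imaged by high-content microscopy.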

Structure (SMILES)	IC50
Cc1cccc(C[C@@H]2NC(=O)[C@H](CC(=O)O)NC(=O)[C@H](Cc3ccc(OCC(=O)O)cc3)NC(=O)[C@H](CCCNC(=N)N)NC(=O)CSC[C@@H](C(=O)N[C@@H](CCN)C(=O)NCCCCCCCCCCC(=O)O)NC(=O)[C@H](CCCNC(N)=O)NC(=O)[C@H](C(C)C)NC(=O)[C@H](CC3CCCCC3)NC(=O)[C@H](CCN)NC(=O)[C@@H](CC(C)C)NC(=O)[C@H](CCCN)NC(=O)[C@H](C(C)C)NC(=O)[C@H](Cc3ccc(-c4ccccc4)cc3)NC(=O)[C@H](C(C)C)NC2=O)c1 [Compound 3291] ({CH2CO}-RY(Carboxymethyl)D[Phe(3-Me)]V[Bip]V[Orn][dL][Dab][Cha]V[Cit]C[Dab][Aun]-OH; thioether N-14)	6.1 nM
Cc1cccc(C[C@@H]2NC(=O)[C@H](CC(=O)O)NC(=O)[C@H](Cc3ccncc3)NC(=O)[C@H](Cc3ccc(OCC(=O)O)cc3)NC(=O)CSC[C@@H](C(=O)N[C@@H](CN)C(=O)NCCCCCCCCCCC(=O)O)NC(=O)[C@H]([C@@H](C)O)NC(=O)[C@H](C(C)C)NC(=O)[C@H](CC3CCCCC3)NC(=O)[C@H](CCN)NC(=O)[C@@H](CC(C)C)NC(=O)[C@H](CCCN)NC(=O)[C@H](C(C)C)NC(=O)[C@H](Cc3ccc(-c4ccccc4)cc3)NC(=O)[C@H](C(C)C)NC2=O)c1 [Compound 1163] ({CH2CO}-Y(Carboxymethyl)[4Pal]D[Phe(3-Me)]V[Bip]V[Orn][dL][Dab][Cha]VTC[Dap][Aun]-OH; thioether N-14)	55.1 nM
CC(C)C[C@H]1NC(=O)[C@H](CCCN)NC(=O)[C@H](C(C)C)NC(=O)[C@H](Cc2ccc(-c3ccccc3)cc2)NC(=O)[C@H](C(C)C)NC(=O)[C@H](Cc2c[nH]c3ccccc23)NC(=O)[C@H](CC(=O)O)NC(=O)[C@H](Cc2ccc(OCC(=O)O)cc2)NC(=O)[C@H](CCCCNC(=N)N)NC(=O)CSC[C@@H](C(=O)N[C@@H](CCN)C(=O)NCCOCCOCC(=O)N[C@@H](CCCN)C(=O)NCCCCCCCCCCCC(=O)O)NC(=O)[C@H](CO)NC(=O)[C@H](C(C)C)NC(=O)[C@H](CC2CCCCC2)NC(=O)[C@H](CC(N)=O)NC1=O [Compound 3177] ({CH2CO}-[hArg]Y(Carboxymethyl)DWV[Bip]V[Orn][dL]N[Cha]VSC[Dab][AEEA][Orn][12Ado]-OH; thioether N-14)	27.3 nM
CC[C@H](C)[C@@H]1NC(=O)[C@H](Cc2ccc(-c3ccccc3)cc2)NC(=O)[C@H](C(C)C)NC(=O)[C@H](Cc2cccc(C)c2)NC(=O)[C@H](CC(=O)O)NC(=O)[C@H](Cc2ccc(C(=O)O)cc2)NC(=O)[C@H](Cc2ccncc2)NC(=O)CSC[C@@H](C(=O)NCCOCCOCC(=O)NCCCCCCCCCCC(=O)O)NC(=O)[C@H]([C@@H](C)O)NC(=O)[C@H](C(C)C)NC(=O)[C@H](CC2CCCCC2)NC(=O)[C@H](CCN)NC(=O)[C@@H](CC(C)C)NC(=O)[C@H](CCCN)NC1=O [Compound 1182]	43.7 nM
CC(C)C[C@H]1NC(=O)[C@H](CCCN)NC(=O)[C@H](CCC(=O)O)NC(=O)[C@H](Cc2ccc(-c3ccccc3)cc2)NC(=O)[C@H](C(C)C)NC(=O)[C@H](Cc2c[nH]c3ccccc23)NC(=O)[C@H](CC(=O)O)NC(=O)[C@H](Cc2ccc(C(=O)O)cc2)NC(=O)[C@H](Cc2ccc(OCC(=O)O)cc2)NC(=O)CSC[C@@H](C(=O)N[C@H](CO)C(=O)NCCOCCOCC(=O)N[C@@H](CCCN)C(=O)NCCCCCCCCCCCC(=O)O)NC(=O)[C@H](CO)NC(=O)[C@H](C(C)C)NC(=O)[C@H](CC2CCCCC2)NC(=O)[C@H](CCN)NC1=O [Compound 3063] ({CH2CO}-Y(Carboxymethyl)[Phe(4-COOH)]DWV[Bip]E[Orn][dL][Dab][Cha]VSC[dS][AEEA][Orn][12Ado]-OH; thioether N-14)	13.4 nM
CCC(C)[C@@H]1NC(=O)[C@H](Cc2ccc(-c3ccccc3)cc2)NC(=O)[C@H](C(C)C)NC(=O)[C@H](Cc2c[nH]c3ccccc23)NC(=O)[C@H](CC(=O)O)NC(=O)[C@H](Cc2ccc(C(=O)O)cc2)NC(=O)[C@H](Cc2ccncc2)NC(=O)CSC[C@@H](C(=O)N[C@@H](CC(N)=O)C(=O)NCCOCCOCC(=O)N[C@@H](CCCN)C(=O)NCCCCCCCCCCC(=O)O)NC(=O)[C@H](CO)NC(=O)[C@H](C(C)C)NC(=O)[C@H](CC2CCCCC2)NC(=O)[C@H](CCN)NC(=O)[C@@H](CC(C)C)NC(=O)[C@H](CCCN)NC1=O (stereo partly drawn) [Compound 3039] ({CH2CO}-[4Pal][Phe(4-COOH)]DWV[Bip][Ile(3ξ)][Orn][dL][Dab][Cha]VSCN[AEEA][Orn][Aun]-OH; thioether N-14)	10.5 nM

Continued, values first:

IC50	Structure (SMILES)
14.4 nM	CC(=O)NCCCC[C@@H]1NC(=O)[C@H](Cc2ccc(-c3ccccc3)cc2)NC(=O)[C@H](Cc2ccc(O)cc2)NC(=O)[C@H](Cc2cccc(C)c2)NC(=O)[C@H](CC(=O)O)NC(=O)[C@H](Cc2ccc(OCC(=O)O)cc2)NC(=O)[C@H](CCCNC(=N)N)NC(=O)CSC[C@@H](C(=O)N[C@@H](CCN)C(=O)NCCCCCCCCCCC(=O)O)NC(=O)[C@H](C(C)O)NC(=O)[C@H](C(C)C)NC(=O)[C@H](CC2CCCCC2)NC(=O)[C@H](CCN)NC(=O)[C@@H](CC(C)C)NC(=O)[C@H](CCCN)NC1=O (stereo partly drawn) [Compound 3508] ({CH2CO}-RY(Carboxymethyl)D[Phe(3-Me)]Y[Bip]K(Ac)[Orn][dL][Dab][Cha]V[Thr(3ξ)]C[Dab][Aun]-OH; thioether N-14)
9.2 nM	Cc1cccc(C[C@@H]2NC(=O)[C@H](CC(=O)O)NC(=O)[C@H](Cc3ccc(OCC(=O)O)cc3)NC(=O)[C@H](CN)NC(=O)CSC[C@@H](C(=O)N[C@@H](CCN)C(=O)NCCCCCCCCCCC(=O)O)NC(=O)[C@H](CCCN)NC(=O)[C@H](C(C)C)NC(=O)[C@H](CC3CCCCC3)NC(=O)[C@H](CCN)NC(=O)[C@@H](CC(C)C)NC(=O)[C@H](CCCN)NC(=O)[C@H](Cc3ccc(OCC(=O)O)cc3)NC(=O)[C@H](Cc3ccc(-c4ccccc4)cc3)NC(=O)[C@H](Cc3ccc(OCC(=O)O)cc3)NC2=O)c1 [Compound 2843] ({CH2CO}-[Dap]Y(Carboxymethyl)D[Phe(3-Me)]Y(Carboxymethyl)[Bip]Y(Carboxymethyl)[Orn][dL][Dab][Cha]V[Orn]C[Dab][Aun]-OH; thioether N-14)
8.4 nM	Cc1cccc(C[C@@H]2NC(=O)[C@H](CC(=O)O)NC(=O)[C@H](Cc3ccc(OCC(=O)O)cc3)NC(=O)[C@H](CCCNC(=N)N)NC(=O)CSC[C@@H](C(=O)N[C@@H](CCN)C(=O)NCCCCCCCCCCC(=O)O)NC(=O)[C@H](C(C)O)NC(=O)[C@H](C(C)C)NC(=O)[C@H](CC3CCCCC3)NC(=O)[C@H](CCN)NC(=O)[C@@H](CC(C)C)NC(=O)[C@H](CCCNC(N)=O)NC(=O)[C@H](Cc3ccc(OCC(=O)O)cc3)NC(=O)[C@H](Cc3ccc(-c4ccccc4)cc3)NC(=O)[C@H](Cc3ccc(OCC(=O)O)cc3)NC2=O)c1 (stereo partly drawn) [Compound 3486] ({CH2CO}-RY(Carboxymethyl)D[Phe(3-Me)]Y(Carboxymethyl)[Bip]Y(Carboxymethyl)[Cit][dL][Dab][Cha]V[Thr(3ξ)]C[Dab][Aun]-OH; thioether N-14)
18 nM	Cc1cccc(C[C@@H]2NC(=O)[C@H](CC(=O)O)NC(=O)[C@H](Cc3ccc(OCC(=O)O)cc3)NC(=O)[C@H](CN)NC(=O)CSC[C@@H](C(=O)N[C@@H](CCN)C(=O)NCCCCCCCCCCC(=O)O)NC(=O)[C@H](CCO)NC(=O)[C@H](C(C)C)NC(=O)[C@H](CC3CCCCC3)NC(=O)[C@H](CCN)NC(=O)[C@@H](CC(C)C)NC(=O)[C@H](CCCN)NC(=O)[C@H](Cc3ccc(OCC(=O)O)cc3)NC(=O)[C@H](Cc3ccc(-c4ccccc4)cc3)NC(=O)[C@H](C(C)C)NC2=O)c1 [Compound 2099] ({CH2CO}-[Dap]Y(Carboxymethyl)D[Phe(3-Me)]V[Bip]Y(Carboxymethyl)[Orn][dL][Dab][Cha]V[hSer]C[Dab][Aun]-OH; thioether N-14)
76.2 nM	Cc1cccc(C[C@@H]2NC(=O)[C@H](CC(=O)O)NC(=O)[C@H](Cc3ccc(OCC(=O)O)cc3)NC(=O)[C@H](CCCNC(=N)N)NC(=O)CSC[C@@H](C(=O)N[C@@H](CCCCN)C(=O)N[C@@H](CO)C(=O)NCCCCCCCCCCCC(=O)O)NC(=O)[C@H](C(C)O)NC(=O)[C@H](C(C)C)NC(=O)[C@H](CC3CCCCC3)NC(=O)[C@H](CCN)NC(=O)[C@@H](CC(C)C)NC(=O)[C@H](CCCN)NC(=O)[C@H](CCCNC(=N)N)NC(=O)[C@H](Cc3ccc(-c4ccccc4)cc3)NC(=O)[C@H](Cc3ccc(O)cc3)NC2=O)c1 (stereo partly drawn) [Compound 3550] ({CH2CO}-RY(Carboxymethyl)D[Phe(3-Me)]Y[Bip]R[Orn][dL][Dab][Cha]V[Thr(3ξ)]CKS[12Ado]-OH; thioether N-14)
346 nM	Cc1cccc(C[C@@H]2NC(=O)[C@H](CC(=O)O)NC(=O)[C@H](Cc3ccc(OCC(=O)O)cc3)NC(=O)[C@H](CCCNC(=N)N)NC(=O)CSC[C@@H](C(=O)N[C@H](CC(N)=O)C(=O)NCCCCCCCCCCC(=O)O)NC(=O)[C@H](C(C)O)NC(=O)[C@H](CO)NC(=O)[C@H](CC3CCCCC3)NC(=O)[C@H](CCN)NC(=O)[C@@H](CC(C)C)NC(=O)[C@H](CCCN)NC(=O)[C@H](Cc3ccc(OCC(=O)O)cc3)NC(=O)[C@H](Cc3ccc(-c4ccccc4)cc3)NC(=O)[C@H](Cc3c[nH]c4ccccc34)NC2=O)c1 (stereo partly drawn) [Compound 3525] ({CH2CO}-RY(Carboxymethyl)D[Phe(3-Me)]W[Bip]Y(Carboxymethyl)[Orn][dL][Dab][Cha]S[Thr(3ξ)]C[dN][Aun]-OH; thioether N-14)
29.3 nM	Cc1cccc(C[C@@H]2NC(=O)[C@H](CC(=O)O)NC(=O)[C@H](Cc3ccc(OCC(=O)O)cc3)NC(=O)[C@H](CCCNC(=N)N)NC(=O)CSC[C@@H](C(=O)N[C@@H](CCN)C(=O)NCCCCCCCCCCC(=O)O)NC(=O)[C@H](CO)NC(=O)[C@H](C(C)C)NC(=O)[C@H](CC3CCCCC3)NC(=O)[C@H](CCN)NC(=O)[C@@H](CC(C)C)NC(=O)[C@H](CCCN)NC(=O)[C@H](Cc3ccncc3)NC(=O)[C@H](Cc3ccc(-c4ccccc4)cc3)NC(=O)[C@H](Cc3ccc(OCC(=O)O)cc3)NC2=O)c1 [Compound 2115] ({CH2CO}-RY(Carboxymethyl)D[Phe(3-Me)]Y(Carboxymethyl)[Bip][4Pal][Orn][dL][Dab][Cha]VSC[Dab][Aun]-OH; thioether N-14)
